The source of these data is patent publication US12390472B2 (SUZHOU SINOVENT PHARMACEUTICALS CO., LTD., priority 2018, dated 2025).

The target in one assay is EZH2 enzyme complex (Homo sapiens (Human), UniProt Q15910). Nature of the assay: Test on EZH2 inhibitory activity (TR-FRET). The conditions noted are these: EZH2 enzyme complex 25 ng/uL, histone H3 peptide 4 uM, SAM 2 uM, 300 min; read-out: IC50 of EZH2 inhibition. The assay is classed as biochemical. (TR-FRET usually uses a lanthanide donor and a delayed reading to cut background.)
Sequence of EZH2 enzyme complex (Q15910 whole entry): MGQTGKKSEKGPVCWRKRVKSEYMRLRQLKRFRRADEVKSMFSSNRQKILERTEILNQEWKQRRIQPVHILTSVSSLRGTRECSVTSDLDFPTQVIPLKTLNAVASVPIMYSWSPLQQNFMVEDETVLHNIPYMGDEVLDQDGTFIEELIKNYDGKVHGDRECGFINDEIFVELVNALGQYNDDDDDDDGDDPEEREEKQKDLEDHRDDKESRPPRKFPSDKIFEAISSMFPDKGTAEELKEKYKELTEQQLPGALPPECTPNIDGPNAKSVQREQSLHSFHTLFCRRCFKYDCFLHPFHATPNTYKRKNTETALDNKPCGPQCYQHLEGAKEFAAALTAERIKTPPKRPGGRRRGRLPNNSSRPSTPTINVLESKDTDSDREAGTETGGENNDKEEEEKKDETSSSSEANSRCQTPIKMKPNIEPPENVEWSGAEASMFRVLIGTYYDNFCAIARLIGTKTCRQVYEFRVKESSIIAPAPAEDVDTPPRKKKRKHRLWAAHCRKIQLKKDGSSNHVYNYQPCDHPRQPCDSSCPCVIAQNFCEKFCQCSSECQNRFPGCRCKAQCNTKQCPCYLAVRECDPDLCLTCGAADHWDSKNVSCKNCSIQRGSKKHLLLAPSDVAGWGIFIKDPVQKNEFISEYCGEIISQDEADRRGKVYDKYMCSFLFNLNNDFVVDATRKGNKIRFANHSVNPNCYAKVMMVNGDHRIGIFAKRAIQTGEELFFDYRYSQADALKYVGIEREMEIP
Sequence of EZH2 enzyme complex (O75530 whole entry partner): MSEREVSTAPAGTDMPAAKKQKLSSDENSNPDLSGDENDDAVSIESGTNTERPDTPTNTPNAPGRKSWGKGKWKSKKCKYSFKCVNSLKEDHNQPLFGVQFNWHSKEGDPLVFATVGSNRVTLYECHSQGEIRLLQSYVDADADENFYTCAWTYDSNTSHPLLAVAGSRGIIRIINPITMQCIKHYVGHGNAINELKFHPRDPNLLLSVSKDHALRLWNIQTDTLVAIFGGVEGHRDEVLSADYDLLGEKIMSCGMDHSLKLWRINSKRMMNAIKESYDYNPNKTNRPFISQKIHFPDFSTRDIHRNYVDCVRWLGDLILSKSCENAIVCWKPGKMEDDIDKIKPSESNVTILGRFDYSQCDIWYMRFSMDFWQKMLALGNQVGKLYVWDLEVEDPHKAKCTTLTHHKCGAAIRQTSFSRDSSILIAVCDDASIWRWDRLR
Sequence of EZH2 enzyme complex (Q15022 whole entry partner): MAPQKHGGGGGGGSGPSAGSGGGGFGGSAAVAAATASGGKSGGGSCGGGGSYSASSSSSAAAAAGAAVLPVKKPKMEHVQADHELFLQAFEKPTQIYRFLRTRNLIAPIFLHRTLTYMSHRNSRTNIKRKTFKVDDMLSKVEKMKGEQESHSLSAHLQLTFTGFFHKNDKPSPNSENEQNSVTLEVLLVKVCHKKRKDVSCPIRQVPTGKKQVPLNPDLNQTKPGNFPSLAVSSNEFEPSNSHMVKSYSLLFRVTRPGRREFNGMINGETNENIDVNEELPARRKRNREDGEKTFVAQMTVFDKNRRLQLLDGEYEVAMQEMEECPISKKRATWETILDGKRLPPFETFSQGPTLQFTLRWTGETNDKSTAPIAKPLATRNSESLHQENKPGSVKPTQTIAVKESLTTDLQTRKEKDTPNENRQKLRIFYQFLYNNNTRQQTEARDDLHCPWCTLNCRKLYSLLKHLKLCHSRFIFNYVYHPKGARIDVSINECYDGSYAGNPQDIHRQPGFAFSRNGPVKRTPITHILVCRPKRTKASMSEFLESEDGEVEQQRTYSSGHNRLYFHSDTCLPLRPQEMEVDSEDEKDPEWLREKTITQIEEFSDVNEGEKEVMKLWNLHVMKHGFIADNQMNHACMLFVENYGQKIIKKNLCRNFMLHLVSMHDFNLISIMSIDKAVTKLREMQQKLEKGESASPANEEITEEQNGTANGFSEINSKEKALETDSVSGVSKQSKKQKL

In another assay the test system is WSU-DLCL2. Kind of assay: Methylated lysine of histone-H3 (H3K27Me3) detection by ELISA, WSU-DLCL2 cells. The assay is classed as cell-based. The conditions noted are these: Homo sapiens, WSUDLCL2, 168 h; WSU-DLCL2, 7 days treatment, H3K27Me3 normalized to total histone-3; read-out: IC50 of cell methylation, WSU-DLCL2. As for the experimental part: (§1) The operations for adherent cells and suspension cells cultured in 96-well plates were slightly different after they had been treated with compound (4-fold dilution 20 uM-0.009 nM, 3 duplicate wells) for 7 days, and the operations are summarized as follows: For adherent cells, after discarding the medium, 75 uL of 1-fold hypotonic lysis buffer (10 mM Tris-HCl, pH 7.5, containing halt protease inhibitor and PMSF with a final concentration of 1 mM) was added; the plate was frozen at −80° C. for at least 1 h or overnight; once the plate was taken away from the −80° C. environment, 120 uL (to a final volume of about 195 uL) of 1-fold hypotonic lysis buffer (containing protease inhibitor) was added, and the plate was thawed at room temperature and shaken for 2 min for mixing; and 8 uL (to a final volume of about 203 uL) of 2.5 M NaCl was added to each well to a final NaCl concentration of 100 mM and then the plate was shaken for an additional 2 min for mixing.
(§2) For suspension cells (final volume of medium was 100 uL/well), 25 uL of 5-fold hypotonic lysis buffer (50 mM Tris-HCl, pH 7.5, containing halt protease inhibitor and PMSF with a final concentration of 1 mM) was added, and the plate was frozen at −80° C. for at least 1 h or overnight. Once the plate was taken away from the −80° C. environment, 20 uL of 0.625 M NaCl was added to each well to a final NaCl concentration of about 100 mM, and the mixture was mixed well.
(§3) 75 uL or 100 uL of sample (with duplicate wells provided) was added to two 96-well ELISA plates (ThermoFisher Scientific; Immulon 4HBX 3885) and the plates were coated with total protein lysate and incubated overnight at 4° C. 50 uL of lysate was retained for protein quantitation if necessary. The sealing of the plates must be ensured. The plates were washed twice with 300 uL of 1×PBST (PBS containing 0.05% Tween 20) per well. Each well was blocked with 300 uL of dilution (PBS+2% BSA+0.05% Tween 20), incubated for 2 h at room temperature, and washed twice with 1×PBST. Primary antibodies were diluted with a dilution solution containing 1% BSA+0.05% Tween 20. 75-100 uL of anti-H3K27Me3 antibody (CST; 9733; 50% glycerol stock, 1:1,000) or anti-total histone-3 antibody (Abcam; ab1791; 50% glycerol stock, 1:10,000) was added to each well. The plates were incubated for 90 min at room temperature or incubated overnight at 4° C. The plates were washed three times with 1×PBST. 75-100 uL of anti-Rb-IgG-HRP secondary antibody (Cell Signaling Technology; 7074) was added per well, 1:2000 diluted secondary antibody for anti-H3K 27Me3 plate and 1:6000 diluted secondary antibody for anti-histone total histone-3 plate. The plates were incubated at room temperature for 90 min. The plate assayed with anti-histone-3 antibody was used to normalize the data for the corresponding plate assayed with anti-H3K 27me3. The plates must be washed at least three times with 1×PBST after primary or secondary antibody incubation. The plates were assayed by adding 75-100 uL of 3,3′,5,5′-tetramethylbenzidine substrate (CST or ThermoFisher Scientific; TMBS) per well and incubated away from light for 30 min at 37° C. The reaction was terminated by adding 100 uL of 0.5 M H2SO4 per well. The absorbance was read at 450 nm. Curve fitting was performed using Graph Pad program.

The next assay has as its system Pfeiffer. Nature of the assay: Methylated lysine of histone-H3 (H3K27Me3) detection by ELISA, Pfeiffer cells. The assay is classed as cell-based, human. The conditions noted are these: Homo sapiens, 168 h, 7 days treatment, H3K27Me3 normalized to total histone-3, read-out: IC50 of cell methylation, Pfeiffer. Here is the method:
as §1, §2, §3
(ELISA stands for enzyme-linked immunosorbent assay.)

Each structure is given as a SMILES string.

As a reminder, the IC50 is the midpoint of a concentration-inhibition curve. As to `CCN(c1cc(OC2CC(N3CCOCC3)C2)cc(C(=O)NCc2c(C)cc(C)[nH]c2=O)c1C)[C@H]1CC[C@H](N(C)CCOC)CC1` (stereo partly drawn) [Example 34, N-((4,6-dimethyl-2-oxo-1,2-dihydropyridin-3-yl)methyl)-3-(ethyl(trans-4-((2-methoxyethyl)(methyl)amino)cyclohexyl)amino)-2-methyl-5-(3-morpholinylcyclobutoxy)benzamide], the IC50 at EZH2 enzyme complex is 10 to 100 nM; with WSU-DLCL2, 500 to 1000 nM; with Pfeiffer it was below 50 nM.
With `CCN(c1cc(O[C@H]2C[C@H](N3C[C@@H](C)O[C@@H](C)C3)C2)cc(C(=O)NCc2c(C)cc(C)[nH]c2=O)c1C)[C@@H]1C[C@@H](C)O[C@@H](C)C1` [Example 39, N-((4,6-dimethyl-2-oxo-1,2-dihydropyridin-3-yl)methyl)-5-(trans-3-(cis-2,6-dimethylmorpholinyl)cyclobutoxy)-3-((trans-2,6-dimethyltetrahydro-2H-pyran-4-yl)(ethyl)amino)-2-methylbenzamide], the half-inhibitory concentration (IC50) on EZH2 enzyme complex is 100 to 1000 nM; with WSU-DLCL2 it was above 1000 nM; in the assay with Pfeiffer it was 500 to 1000 nM.
With `CCN(c1cc(O[C@H]2C[C@@H](N3CCN(C(C)C)CC3)C2)cc(C(=O)NCc2c(C)cc(C)[nH]c2=O)c1C)C1CCOCC1` [Example 21, N-((4,6-dimethyl-2-oxo-1,2-dihydropyridin-3-yl)methyl)-3-(ethyl(tetrahydro-2H-pyran-4-yl)amino)-5-(cis-3-(4-isopropylpiperazin-1-yl)cyclobutoxy)-2-methylbenzamide], the IC50 on EZH2 enzyme complex was 10 to 100 nM; in the assay with WSU-DLCL2, 50 to 500 nM; with Pfeiffer, below 50 nM.
In the case of `CCN(c1cc(O[C@H]2C[C@H](N3CCC(C)CC3)C2)cc(C(=O)NCc2c(C)cc(C)[nH]c2=O)c1C)C1CCOCC1` [Example 37, N-((4,6-dimethyl-2-oxo-1,2-dihydropyridin-3-yl)methyl)-3-(ethyl(tetrahydro-2H-pyran-4-yl)amino)-2-methyl-5-(trans-3-(4-methylpiperidin-1-yl)cyclobutoxy)benzamide], the values for the IC50 on EZH2 enzyme complex, with WSU-DLCL2 and in the assay on Pfeiffer were below 10 nM, 50 to 500 nM and below 50 nM, respectively.
As to `CCN(c1cc(O[C@H]2C[C@H](N3CCNCC3)C2)cc(C(=O)NCc2c(C)cc(C)[nH]c2=O)c1C)C1CCOCC1` [Example 18, N-((4,6-dimethyl-2-oxo-1,2-dihydropyridin-3-yl)methyl)-3-(ethyl(tetrahydro-2H-pyran-4-yl)amino)-2-methyl-5-(trans-3-(piperazin-1-yl)cyclobutoxy)benzamide], the IC50 was 10 to 100 nM at EZH2 enzyme complex, 50 to 500 nM with WSU-DLCL2 and below 50 nM in the assay on Pfeiffer.
Taken in the same sequence, the figures for `CCN(c1cc(C2CC2CN2CCC(F)CC2)cc(C(=O)NCc2c(C)cc(C)[nH]c2=O)c1C)C1CCOCC1` (stereo not drawn) [Example 79, N-((4,6-dimethyl-2-oxo-1,2-dihydropyridin-3-yl)methyl)-3-(ethyl(tetrahydro-2H-pyran-4-yl)amino)-5-(2-((4-fluoropiperidin-1-yl)methyl)cyclopropyl)-2-methylbenzamide] were 10 to 100 nM, 50 to 500 nM and below 50 nM.
With `CCN(c1cc(OC2CC(C)C2)cc(C(=O)NCc2c(C)cc(C)[nH]c2=O)c1C)C1CCOCC1` (stereo not drawn) [Example 2, N-((4,6-dimethyl-2-oxo-1,2-dihydropyridin-3-yl)methyl)-3-(ethyl(tetrahydro-2H-pyran-4-yl)amino)-2-methyl-5-(3-methylcyclobutoxy)benzamide], the IC50 at EZH2 enzyme complex is 10 to 100 nM; with WSU-DLCL2 it was 500 to 1000 nM; with Pfeiffer, 50 to 500 nM.
For `CCN(c1cc(O[C@H]2C[C@H](CN3CCCCC3)C2)cc(C(=O)NCc2c(C)cc(C)[nH]c2=O)c1C)C1CCOCC1` [Example 36, N-((4,6-dimethyl-2-oxo-1,2-dihydropyridin-3-yl)methyl)-3-(ethyl(tetrahydro-2H-pyran-4-yl)amino)-2-methyl-5-(trans-3-(piperidin-1-ylmethyl)cyclobutoxy)benzamide], the IC50 at EZH2 enzyme complex was 10 to 100 nM; in the assay on WSU-DLCL2, 50 to 500 nM; in the assay on Pfeiffer, below 50 nM.
For the compound `Cc1cc(C)c(CNC(=O)c2cc(O[C@H]3C[C@H](N4C[C@@H](C)O[C@@H](C)C4)C3)cc(NC3CCOC3)c2C)c(=O)[nH]1` (stereo partly drawn) [Example 58, N-((4,6-dimethyl-2-oxo-1,2-dihydropyridin-3-yl)methyl)-5-(trans-3-(cis-2,6-dimethylmorpholino)cyclobutoxy)-2-methyl-3-((tetrahydrofuran-3-yl)amino)benzamide], the IC50 at EZH2 enzyme complex, in the assay on WSU-DLCL2 and in the assay with Pfeiffer was above 1000 nM each time.
`CCN(c1cc(C2CC2CN2CCC(F)(F)CC2)cc(C(=O)NCc2c(C)cc(C)[nH]c2=O)c1C)C1CCOCC1` (stereo not drawn) [Example 78, 5-(2-((4,4-difluoropiperidin-1-yl)methyl)cyclopropyl)-N-((4,6-dimethyl-2-oxo-1,2-dihydropyridin-3-yl)methyl)-3-(ethyl(tetrahydro-2H-pyran-4-yl)amino)-2-methylbenzamide]: the IC50 was 10 to 100 nM at EZH2 enzyme complex, 50 to 500 nM in the assay on WSU-DLCL2 and below 50 nM in the assay with Pfeiffer.
On the same counts, the results for `CCN(c1cc(C2CC2CN2CCCCC2)cc(C(=O)NCc2c(C)cc(C)[nH]c2=O)c1C)C1CCOCC1` (stereo not drawn) [Example 77, N-((4,6-dimethyl-2-oxo-1,2-dihydropyridin-3-yl)methyl)-3-(ethyl(tetrahydro-2H-pyran-4-yl)amino)-2-methyl-5-(2-(piperidin-1-ylmethyl)cyclopropyl)benzamide] are 10 to 100 nM, 50 to 500 nM and below 50 nM.
With `CCN(c1cc(C2CC2CO)cc(C(=O)NCc2c(C)cc(C)[nH]c2=O)c1C)C1CCOCC1` (stereo not drawn) [Example 71, N-((4,6-dimethyl-2-oxo-1,2-dihydropyridin-3-yl)methyl)-3-(ethyl(tetrahydro-2H-pyran-4-yl)amino)-5-(2-(hydroxymethyl)cyclopropyl)-2-methylbenzamide], the 50% inhibitory concentration (IC50) on EZH2 enzyme complex is 10 to 100 nM; in the assay on WSU-DLCL2, 50 to 500 nM; in the assay on Pfeiffer, below 50 nM.
On to `CCN(c1cc(C2CC2CN2C[C@@H](C)O[C@@H](C)C2)cc(C(=O)NCc2c(C)cc(C)[nH]c2=O)c1C)C1CCOCC1` (stereo partly drawn) [Example 75, N-((4,6-dimethyl-2-oxo-1,2-dihydropyridin-3-yl)methyl)-5-(2-((cis-2,6-dimethylmorpholinyl)methyl)cyclopropyl)-3-(ethyl(tetrahydro-2H-pyran-4-yl)amino)-2-methylbenzamide], for which the IC50 is 10 to 100 nM on EZH2 enzyme complex, above 1000 nM with WSU-DLCL2 and below 50 nM in the assay with Pfeiffer.
Regarding `CCN(c1cc(O[C@H]2C[C@H](N3CCOCC3)C2)cc(C(=O)N(C)Cc2c(C)cc(C)[nH]c2=O)c1C)C1CCOCC1` [Example 51, N-((4,6-dimethyl-2-oxo-1,2-dihydropyridin-3-yl)methyl)-3-(ethyl(tetrahydro-2H-pyran-4-yl)amino)-N,2-dimethyl-5-(trans-3-morpholinylcyclobutoxy)benzamide], the figures for the IC50 at EZH2 enzyme complex, in the assay with WSU-DLCL2 and with Pfeiffer were 100 to 1000 nM, above 1000 nM and above 1000 nM, respectively.
